Reference: paper PMC5144078, “Bifidobacterium breve UCC2003 metabolises the human milk oligosaccharides lacto-N-tetraose and lacto-N-neo-tetraose through overlapping, yet distinct pathways” (Scientific Reports, 2016)

What was measured:
Assay in all cases: HPAEC-PAD product analysis
LntA (LntAHis) = molecular target: T1, LntA (LntAHis) (Bifidobacterium breve, UniProt D4BMY8); format: biochemical; conditions: 20 mM MOPS pH 7.0, 37 °C, 24 h, 1 mg/ml substrate
T1 construct: gene BIFBRE_03435; GH42 beta-galactosidase; purified His-tagged protein

LacZ6 (LacZ6His) = molecular target: T2, LacZ6 (LacZ6His) (Bifidobacterium breve, UniProt D4BR09); conditions: 20 mM MOPS pH 7.0, 37 °C, 24 h, 1 mg/ml substrate
T2 construct: gene BIFBRE_04539

NahA (NahAHis) = molecular target: T3, NahA (NahAHis) (Bifidobacterium breve, UniProt D4BR02); format: biochemical; conditions: MOPS pH 7.0, 37 °C; lacto-N-triose made in situ from LNT or LNnT by LntA, LntA heat-denatured before NahA addition
T3 construct: gene BIFBRE_04532; GH20 beta-N-acetylhexosaminidase; N-terminal His10 tag; gene of 660 codons; expressed in Lactococcus lactis NZ9000
T3 sequence (D4BR02 entry or part of it): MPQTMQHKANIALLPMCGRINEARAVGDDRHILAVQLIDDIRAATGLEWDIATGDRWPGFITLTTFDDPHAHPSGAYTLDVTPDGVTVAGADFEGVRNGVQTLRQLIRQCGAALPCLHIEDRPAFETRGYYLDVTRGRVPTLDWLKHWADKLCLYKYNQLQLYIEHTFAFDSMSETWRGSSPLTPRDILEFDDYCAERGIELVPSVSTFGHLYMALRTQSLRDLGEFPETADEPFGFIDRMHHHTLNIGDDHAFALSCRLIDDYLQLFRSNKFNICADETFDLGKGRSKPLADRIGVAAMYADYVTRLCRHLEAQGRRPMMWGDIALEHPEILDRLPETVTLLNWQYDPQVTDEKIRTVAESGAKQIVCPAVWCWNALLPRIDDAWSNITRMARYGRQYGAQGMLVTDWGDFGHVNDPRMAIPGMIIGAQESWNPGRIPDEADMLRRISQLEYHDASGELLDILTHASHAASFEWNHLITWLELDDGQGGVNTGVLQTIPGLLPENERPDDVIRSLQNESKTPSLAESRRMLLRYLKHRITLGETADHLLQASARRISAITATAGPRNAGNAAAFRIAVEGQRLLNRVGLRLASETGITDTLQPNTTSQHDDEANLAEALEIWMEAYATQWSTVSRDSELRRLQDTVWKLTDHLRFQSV

T1 sequence (D4BMY8 1-691): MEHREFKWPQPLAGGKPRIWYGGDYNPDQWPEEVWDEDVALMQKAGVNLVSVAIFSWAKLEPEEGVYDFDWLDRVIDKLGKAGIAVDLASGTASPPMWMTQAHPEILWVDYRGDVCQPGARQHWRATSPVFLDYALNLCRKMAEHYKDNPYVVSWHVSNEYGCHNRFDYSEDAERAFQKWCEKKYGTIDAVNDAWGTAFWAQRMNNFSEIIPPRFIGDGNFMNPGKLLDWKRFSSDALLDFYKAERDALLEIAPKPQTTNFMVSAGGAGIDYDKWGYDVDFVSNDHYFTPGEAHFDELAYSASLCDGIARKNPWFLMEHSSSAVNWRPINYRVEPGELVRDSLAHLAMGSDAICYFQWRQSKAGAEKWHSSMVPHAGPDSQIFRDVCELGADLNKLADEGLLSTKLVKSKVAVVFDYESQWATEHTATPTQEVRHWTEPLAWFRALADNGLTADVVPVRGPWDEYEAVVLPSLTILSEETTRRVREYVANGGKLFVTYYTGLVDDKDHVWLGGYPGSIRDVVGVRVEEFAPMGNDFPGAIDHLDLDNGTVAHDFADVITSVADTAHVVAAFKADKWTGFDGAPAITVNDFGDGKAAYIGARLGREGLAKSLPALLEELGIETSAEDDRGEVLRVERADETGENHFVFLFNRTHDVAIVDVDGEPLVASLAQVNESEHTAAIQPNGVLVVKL
T2 sequence (D4BR09 1-1045): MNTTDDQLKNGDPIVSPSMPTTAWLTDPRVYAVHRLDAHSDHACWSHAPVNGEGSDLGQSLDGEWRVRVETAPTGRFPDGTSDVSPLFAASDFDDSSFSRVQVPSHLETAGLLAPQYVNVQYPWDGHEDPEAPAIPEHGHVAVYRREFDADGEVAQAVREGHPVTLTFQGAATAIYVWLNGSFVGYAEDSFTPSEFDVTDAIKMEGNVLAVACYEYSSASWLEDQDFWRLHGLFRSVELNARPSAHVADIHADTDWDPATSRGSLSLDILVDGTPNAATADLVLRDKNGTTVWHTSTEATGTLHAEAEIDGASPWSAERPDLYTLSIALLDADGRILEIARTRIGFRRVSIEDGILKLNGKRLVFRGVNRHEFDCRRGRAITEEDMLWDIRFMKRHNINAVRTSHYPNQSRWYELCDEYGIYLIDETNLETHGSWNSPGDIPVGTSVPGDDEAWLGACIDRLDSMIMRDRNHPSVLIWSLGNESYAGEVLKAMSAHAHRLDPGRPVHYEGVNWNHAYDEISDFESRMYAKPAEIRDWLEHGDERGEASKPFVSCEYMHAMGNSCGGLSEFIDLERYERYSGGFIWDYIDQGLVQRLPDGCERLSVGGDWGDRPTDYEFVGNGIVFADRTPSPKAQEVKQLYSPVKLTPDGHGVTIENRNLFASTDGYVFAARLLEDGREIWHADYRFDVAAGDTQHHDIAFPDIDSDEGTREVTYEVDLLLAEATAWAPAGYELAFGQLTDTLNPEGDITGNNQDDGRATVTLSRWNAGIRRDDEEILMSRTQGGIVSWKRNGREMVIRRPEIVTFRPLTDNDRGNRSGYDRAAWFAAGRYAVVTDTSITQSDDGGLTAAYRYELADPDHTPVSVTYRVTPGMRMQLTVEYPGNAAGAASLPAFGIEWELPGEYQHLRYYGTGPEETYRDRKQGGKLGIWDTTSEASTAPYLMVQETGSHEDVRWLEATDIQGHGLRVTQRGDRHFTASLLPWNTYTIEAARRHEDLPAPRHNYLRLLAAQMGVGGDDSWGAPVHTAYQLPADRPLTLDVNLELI

In the case of `CC(=O)N[C@H]1[C@H](O[C@H]2[C@@H](O)[C@@H](CO)O[C@@H](O[C@H]3[C@H](O)[C@@H](O)C(O)O[C@@H]3CO)[C@@H]2O)O[C@H](CO)[C@@H](O)[C@@H]1O[C@@H]1O[C@H](CO)[C@H](O)[C@H](O)[C@H]1O` (stereo partly shown) [LNT, lacto-N-tetraose], the HPAEC-PAD product analysis (LntA (LntAHis)) is reported as “Purified LntAHis was shown to remove the galactose moiety at the non-reducing end”.
For `CC(=O)N[C@H]1[C@H](O[C@H]2[C@@H](O)[C@@H](CO)O[C@@H](O[C@H]3[C@H](O)[C@@H](O)C(O)O[C@@H]3CO)[C@@H]2O)O[C@H](CO)[C@@H](O[C@@H]2O[C@H](CO)[C@H](O)[C@H](O)[C@H]2O)[C@@H]1O` (stereo partly shown) [LNnT, lacto-N-neotetraose], the HPAEC-PAD product analysis (LntA (LntAHis)) was “Purified LntAHis was capable of removing the galactose moiety at the non-reducing end of LNnT” and the HPAEC-PAD product analysis (LacZ6 (LacZ6His)) was “Purified LacZ2His and LacZ6His were, under the conditions applied, also capable of hydrolysing LNnT”.
With `CC(=O)N[C@H]1[C@H](O[C@H]2[C@@H](O)[C@@H](CO)O[C@@H](O[C@H]3[C@H](O)[C@@H](O)C(O)O[C@@H]3CO)[C@@H]2O)O[C@H](CO)[C@@H](O)[C@@H]1O` (stereo partly shown) [lacto-N-triose] the HPAEC-PAD product analysis (NahA (NahAHis)) was “Lacto-N-triose is then hydrolysed by NahA, liberating Lactose and GlcNAc”.
